Test results from PubChem BioAssay AID220 (DTP/NCI, 2004).
Results filed as inconclusive are left out.

Test system: CD8F1 mice, subcutaneous mammary adenocarcinoma, T/C%
Assay: NCI In Vivo Anticancer Drug Screen. Data for tumor model Mammary Adenocarcinoma CD8F1 (subcutaneous) in CD8F1
Conditions: higher = larger tumour
Description: The antitumor activity of compounds was measured in mice bearing transplantable tumors. Survival or tumor size were measured and the results are expressed as the measurement made in the treated group (T) divided by the measurement made in the vehicle treated control group (C). The tumor model used in this assay is Mammary Adenocarcinoma CD8F1 (subcutaneous) in CD8F1

CCc1nc(N)nc(N)c1-c1ccc(Cl)c(Cl)c1
T/C (endpoint: mean tumor weight (est.), dose: 40.0 mg/kg/injection, schedule: Q07DX003 (ip), vehicle: saline with Tween-80): 107 % of control
T/C (endpoint: mean tumor weight (est.), dose: 50.0 mg/kg/injection, schedule: Q07DX003 (ip), vehicle: saline with Tween-80): 100 % of control
T/C (endpoint: mean tumor weight (est.), dose: 60.0 mg/kg/injection, schedule: Q07DX003 (ip), vehicle: saline with Tween-80): 93 % of control
T/C (endpoint: mean tumor weight (est.), dose: 60.0 mg/kg/injection, schedule: Q07DX004 (ip), vehicle: saline with Tween-80): 35 % of control
T/C (endpoint: mean tumor weight (est.), dose: 80.0 mg/kg/injection, schedule: Q07DX004 (ip), vehicle: saline with Tween-80): 50 % of control

CCCNC1=C(C)C(=O)C2=C(C1=O)[C@H](COC(N)=O)[C@]1(OC)[C@@H]3N[C@@H]3CN21
T/C (endpoint: median tumor weight change, dose: 3.75 mg/kg/injection, schedule: Q01DX001 (ip), vehicle: saline): 7 % of control
T/C (endpoint: median tumor weight change, dose: 7.5 mg/kg/injection, schedule: Q01DX001 (ip), vehicle: saline): 13 % of control
T/C (endpoint: median tumor weight change, dose: 15.0 mg/kg/injection, schedule: Q01DX001 (ip), vehicle: saline): -66 % of control

CCC1(O)CC2CN(CCc3c([nH]c4ccccc34)C(C(=O)OC)(c3cc4c(cc3OC)N(C)C3C(O)(C(N)=O)C(O)C5(CC)C=CCN6CCC43C65)C2)C1 (centres undefined) (tested in a mixture with another compound)
T/C (endpoint: median tumor weight (est.), dose: 0.12 mg/kg/injection, schedule: Q07DX005 (ip), vehicle: saline): 87 % of control
T/C (endpoint: median tumor weight (est.), dose: 0.25 mg/kg/injection, schedule: Q07DX005 (ip), vehicle: saline): 74 % of control
T/C (endpoint: median tumor weight (est.), dose: 0.5 mg/kg/injection, schedule: Q07DX005 (ip), vehicle: saline): 51 % of control
T/C (endpoint: median tumor weight (est.), dose: 1.0 mg/kg/injection, schedule: Q07DX005 (ip), vehicle: saline): 16 % of control

C[n+]1c(/C=C\C=C\N2CCCCC2)sc2ccccc21
T/C (endpoint: median tumor weight (est.), dose: 0.5 mg/kg/injection, schedule: Q07DX005 (ip), vehicle: Klucel (hydroxypropylcellulose) (HPC)): 114 % of control
T/C (endpoint: median tumor weight (est.), dose: 1.0 mg/kg/injection, schedule: Q07DX005 (ip), vehicle: Klucel (hydroxypropylcellulose) (HPC)): 108 % of control

Cc1cc(NS(=O)(=O)c2ccc(N=Nc3cc(N=Nc4ccc(S(=O)(=O)Nc5cc(C)nc(C)n5)cc4)c4c(NC(=O)C(Cl)Cl)cccc4c3OC(=O)C(Cl)Cl)cc2)nc(C)n1 (tested in a mixture with another compound)
T/C (endpoint: median tumor weight change, dose: 250.0 mg/kg/injection, schedule: Q01DX001 (ip), vehicle: suspension in saline): 167 % of control
T/C (endpoint: median tumor weight change, dose: 500.0 mg/kg/injection, schedule: Q01DX001 (ip), vehicle: suspension in saline): 65 % of control

NC(=O)c1ncn(C2OC(CO)C(O)C2O)n1 (centres undefined)
T/C (endpoint: mean tumor weight, dose: 12.5 mg/kg/injection, schedule: Q07DX006 (ip), vehicle: saline): 120 % of control
T/C (endpoint: mean tumor weight, dose: 25.0 mg/kg/injection, schedule: Q07DX006 (ip), vehicle: saline): 288 % of control
T/C (endpoint: mean tumor weight, dose: 50.0 mg/kg/injection, schedule: Q07DX006 (ip), vehicle: saline): 60 % of control
T/C (endpoint: mean tumor weight, dose: 100.0 mg/kg/injection, schedule: Q07DX006 (ip), vehicle: saline): 35 % of control
T/C (endpoint: mean tumor weight, dose: 200.0 mg/kg/injection, schedule: Q07DX006 (ip), vehicle: saline): 41 % of control
T/C (endpoint: mean tumor weight, dose: 400.0 mg/kg/injection, schedule: Q07DX006 (ip), vehicle: saline): 27 % of control
T/C (endpoint: median tumor weight (est.), dose: 12.5 mg/kg/injection, schedule: Q07DX005 (ip), vehicle: saline): 118 % of control
T/C (endpoint: median tumor weight (est.), dose: 25.0 mg/kg/injection, schedule: Q07DX005 (ip), vehicle: saline): 165 % of control
T/C (endpoint: median tumor weight (est.), dose: 50.0 mg/kg/injection, schedule: Q07DX005 (ip), vehicle: saline): 97 % of control
T/C (endpoint: median tumor weight (est.), dose: 100.0 mg/kg/injection, schedule: Q07DX005 (ip), vehicle: saline): 102 % of control
T/C (endpoint: median tumor weight (est.), dose: 200.0 mg/kg/injection, schedule: Q07DX005 (ip), vehicle: saline): 46 % of control
T/C (endpoint: median tumor weight (est.), dose: 400.0 mg/kg/injection, schedule: Q07DX005 (ip), vehicle: saline): 48 % of control

C[n+]1c(-c2cccc(OCCOCCOc3cccc(-c4c5cc(N)ccc5c5ccc(N)cc5[n+]4C)c3)c2)c2cc(N)ccc2c2ccc(N)cc21
T/C (endpoint: median tumor weight change, dose: 5.0 mg/kg/injection, schedule: Q01DX001 (ip), vehicle: water): 63 % of control
T/C (endpoint: median tumor weight change, dose: 10.0 mg/kg/injection, schedule: Q01DX001 (ip), vehicle: water): 72 % of control
T/C (endpoint: median tumor weight change, dose: 40.0 mg/kg/injection, schedule: Q01DX001 (ip), vehicle: water): 60 % of control

Nc1nc2c(ncn2C2OC(CO)C(O)C2O)c(=O)[nH]1 (centres undefined)
T/C (endpoint: median tumor weight (est.), dose: 100.0 mg/kg/injection, schedule: Q07DX005 (ip), vehicle: saline with Tween-80): 86 % of control
T/C (endpoint: median tumor weight (est.), dose: 200.0 mg/kg/injection, schedule: Q07DX005 (ip), vehicle: saline with Tween-80): 92 % of control
T/C (endpoint: median tumor weight (est.), dose: 400.0 mg/kg/injection, schedule: Q07DX005 (ip), vehicle: saline with Tween-80): 110 % of control
T/C (endpoint: median tumor weight (est.), dose: 800.0 mg/kg/injection, schedule: Q07DX005 (ip), vehicle: saline with Tween-80): 88 % of control
T/C (endpoint: median tumor weight (est.), dose: 1600.0 mg/kg/injection, schedule: Q07DX005 (ip), vehicle: saline with Tween-80): 103 % of control
T/C (endpoint: median tumor weight (est.), dose: 3200.0 mg/kg/injection, schedule: Q07DX005 (ip), vehicle: saline with Tween-80): 84 % of control

O=C1N=C(Oc2ccccc2)SC1=O
T/C (endpoint: median tumor weight change, dose: 62.5 mg/kg/injection, schedule: Q01DX001 (ip), vehicle: saline with Tween-80): 43 % of control
T/C (endpoint: median tumor weight change, dose: 125.0 mg/kg/injection, schedule: Q01DX001 (ip), vehicle: DMSO): 66 % of control
